Measurements reported in US4125531A, “2-Substituted-1-azabicyclo[2.2.2]octanes” (G. D. Searle & Co., priority 1977, dated 1978).
Counter-ions that a name gives are not always drawn. Like-named read-outs stand apart in the source and are kept apart here.

How the values were obtained:
[1] = system: castor oil-induced diarrhea; test: Castor Oil-Induced Diarrhea in the Rat; format: in vivo, rat (adult Charles River male rats); conditions: po, read-out: ED50 ± S.E. (median effective dose) at 2 hours past castor oil administration
Description: Castor Oil-Induced Diarrhea in the Rat
Adult Charles River male rats are fasted in community cages for 24 hours prior to the test, with free access to water. The test compound is then administered intragastrically (suspended on 0.5% methyl cellulose) one hour prior to the intragastric adminstration of a dose of 1.0 ml. castor oil per rat. The rats are then observed for the presence or absence of diarrhea at hourly intervals for up to 8 hours past the castor oil adminstration. Using the method of Berkson (1953), the median effective dose (ED50) values are calculated at each hourly interval for the test compound.
The median effective dose at 2 hours past the castor oil adminstration for the following representative compounds of the present invention in the castor oil-induced diarrhea in the Rat test are: […]

[2] = system: gastronintestinal motility; test: Mouse Cecal Test (inhibition of gastrointestinal motility, charcoal in cecum); format: in vivo, mouse (male Charles River mice); conditions: po, read-out: ED50 ± S.E. (median effective dose), Mouse Cecal Test
Description: The compounds of the present invention are useful in consequence of their valuable pharmacological properties. They are, for example, potent anti-diarrheal agents as evidenced by their ability to inhibit gastronintestinal motility as set out in the following tests:
The method used for this assay is a modification of the techniques previously described by Macht and BarbaGose, J. Amer. Pharm. Ass., 20, 558 (1931), and Janssen and Jageneau, J. Pharm. Pharmacol., 9, 381 (1957). Details are as follows:
A group of six, male Charles River mice weighing 20-25 g. which have been previously fasted for 24 hours are pretreated with the test compounds administered orally as a solution in water or suspended in 0.5% methyl cellulose. A constant volume of 10 ml./kg. is employed. Thirty minutes following administration of the test compounds, the animals are given a single oral dose of charcoal which consists of 0.2 ml. per mouse of 10% charcoal suspended in 1.0% methyl cellulose. Three and a half hours after charcoal administration, the animals are sacrificed and the cecum examined for the absence or presence of charcoal on an all-or-none basis.
The median effective dose (ED50) is then calculated for each compound using the logistic method of Berkson (1953).
The median effective dose ± standard Error ED50 ± SE) for the following representative compounds of the present invention in the Mouse Cecal Test are […]

[3] = IG, test compound one hour before 1.0 ml castor oil, 2 hours past castor oil
[4] = IG, test compound 30 minutes before charcoal, cecum examined 3.5 hours after charcoal

C=CCC(CC1CC2CCN1CC2)(c1ccccc1)c1ccccc1 (centres unmarked) [2-(2,2-diphenyl-4-pentenyl)-1-azabicyclo[2.2.2]octane]
ED50 [1, 3]: 1.13 ± 0.18 mg/kg | ED50 [2, 4]: 1.82 ± 0.45 mg/kg

CCCCCC(CC1CC2CCN1CC2)(c1ccccc1)c1ccccc1.O=C(O)/C=C\C(=O)O (centres unmarked) [2-(2,2-diphenylheptyl)-1-azabicyclo[2.2.2]octane maleate]
ED50 ([1]; 2 h): 10.2 ± 1.43 mg/kg | ED50 [2]: 5.84 ± 1.94 mg/kg

CCCCC(CC1CC2CCN1CC2)(c1ccccc1)c1ccccc1 (centres unmarked) [2-(2,2-diphenylhexyl)-1-azabicyclo[2.2.2]octane]
ED50 [1, 3]: 4.57 ± 0.21 mg/kg | ED50 [2, 4]: 8.74 ± 3.95 mg/kg

CCCCCCC(CC1CC2CCN1CC2)(c1ccccc1)c1ccccc1.O=C(O)/C=C\C(=O)O (centres unmarked) [2-(2,2-diphenyloctyl)-1-azabicyclo[2.2.2]octane maleate]
ED50 [2]: 20.7 ± 12.3 mg/kg

CC(CC1CC2CCN1CC2)(c1ccccc1)c1ccccc1 (centres unmarked) [2-(2,2-diphenylpropyl)-1-azabicyclo[2.2.2]octane]
ED50 [2, 4]: 43.1 ± 15.5 mg/kg

CC(C)=CCC(CC1CC2CCN1CC2)(c1ccccc1)c1ccccc1 (centres unmarked) [2-(5-methyl-2,2-diphenylhex-4-enyl)-1-azabicyclo[2.2.2]octane]
ED50 [1, 3]: 1.74 ± 0.53 mg/kg | ED50 [2, 4]: 1.45 ± 0.66 mg/kg

CCOC(=O)C1(c2ccccc2)CCN(CCC(C#N)(c2ccccc2)c2ccccc2)CC1 [Diphenoxylate . HCl, reference compound]
ED50 [2]: 3.12 ± 1.29 mg/kg
